Literature values, collected in patent publication US20100267960A1, “PROCESS FOR PREPARING PRAMIPEXOLE DIHYDROCHLORIDE TABLETS” (Boehringer Ingelheim Pharma GmbH & Co. KG, priority 2006, published 2010).
Counter-ions that a name gives are not always drawn.

Assays:
[1] = not given; remark: listed apart in the source

Row | Compound | solubility in buffer media (buffer media, between pH 2 and pH 7.4) | Water solubility (water) | hygroscopicity ([1]; solid) | light sensitivity in solution ([1]; in solution) | stability in the solid state ([1]; solid state)
1 | CCCN[C@H]1CCc2nc(N)sc2C1 [Pramipexole dihydrochloride monohydrate, pramipexole dihydrochloride monohydrate] | above 10 mg/mL | more than 20 mg/mL | not hygroscopic | – | –
2 | CCCN[C@H]1CCc2nc(N)sc2C1 [Pramipexole, (S)-2-amino-4,5,6,7-tetrahydro-6-(propylamino)benzothiazole] | – | – | – | light sensitive | very stable
